Assay results taken from PMC10850047, “Exploring the impact of PEGylation on pharmacokinetics: a size-dependent effect of polyethylene glycol on prostate-specific membrane antigen inhibitors” (EJNMMI Research, 2024).
Read-outs that look alike come from different tables or passages of the source.

Legend:
[1] = system: PC3-PIP tumor-bearing balb/c-nu mice; experiment: Biodistribution in PC3-PIP tumor model; assay type: in vivo; conditions: mean ± SD (n=5)
Procedure: All animal experiments were performed with the approval of the institutional animal ethics committee. Male NOD/SCID mice (5 − 6 weeks old) implanted with LNCaP cells were used for imaging and biodistribution experiments as previously described. The mice were imaged or used in biodistribution studies once the tumor grew to 8 − 10 mm in diameter over a period of 4 − 5 weeks. At the same time, male balb/c-nu mice (5 − 6 weeks old) implanted with PC3-PIP cells were used as an alternative tumor model for imaging and biodistribution experiments.
To conduct biodistribution studies, male mice bearing LNCaP or PC3-PIP tumors with an average body weight of approximately 20 ± 5 g and a tumor diameter of 8 − 10 mm were administered a bolus injection of 2.5 MBq of the corresponding radioligand via the tail vein. After 30, 60, and 120 min, the mice were anesthetized with isoflurane and subsequently euthanized by CO2 asphyxiation. Blood was drawn, and the organs of interest were promptly harvested, blotted dry, and weighed. The radioactivity of the collected mouse organs was measured and expressed as the percentage of the injected dose per gram of tissue (%ID/g). Each group consisted of at least five mice.

PSMA = target: T1, PSMA (Homo sapiens, UniProt Q04609); experiment: Competitive cell binding assay against [68Ga]Ga-PSMA-11 on LNCaP cells; conditions: competition with [68Ga]Ga-PSMA-11, natGa-labeled standards, 1 h 37 °C
T1 construct: host or cells: LNCaP
T1 sequence (Q04609 whole entry): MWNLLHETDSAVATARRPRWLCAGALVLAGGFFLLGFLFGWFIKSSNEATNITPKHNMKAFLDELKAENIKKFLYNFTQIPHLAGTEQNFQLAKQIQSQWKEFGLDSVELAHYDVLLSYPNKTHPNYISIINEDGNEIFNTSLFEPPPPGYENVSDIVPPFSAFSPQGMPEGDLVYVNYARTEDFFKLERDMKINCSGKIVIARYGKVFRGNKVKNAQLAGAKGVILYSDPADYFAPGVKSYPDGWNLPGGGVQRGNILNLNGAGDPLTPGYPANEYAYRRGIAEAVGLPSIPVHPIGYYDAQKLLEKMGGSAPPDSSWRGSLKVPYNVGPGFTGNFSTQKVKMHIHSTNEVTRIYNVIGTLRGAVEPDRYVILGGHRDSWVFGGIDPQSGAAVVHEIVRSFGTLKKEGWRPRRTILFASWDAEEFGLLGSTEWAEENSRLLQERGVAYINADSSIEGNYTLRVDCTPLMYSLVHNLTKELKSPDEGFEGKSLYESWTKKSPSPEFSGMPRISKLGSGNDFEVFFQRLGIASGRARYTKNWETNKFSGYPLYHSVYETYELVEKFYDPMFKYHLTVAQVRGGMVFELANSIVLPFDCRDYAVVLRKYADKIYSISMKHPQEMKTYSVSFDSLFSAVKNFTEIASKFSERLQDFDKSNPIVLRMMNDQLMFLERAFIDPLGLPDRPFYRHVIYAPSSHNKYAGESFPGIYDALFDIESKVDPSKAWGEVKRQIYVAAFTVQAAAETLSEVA
Procedure: LNCaP prostate cancer cell line obtained from the American Type Culture Collection (ATCC, Manassas, VA) was used for cell affinity studies. The cells were grown in a meilunbio RPMI 1640 medium (ATCC modified) supplemented with 10% fetal bovine serum and 1% streptomycin/penicillin (Thermo Fisher Scientific, USA) at 37 °C in a humidified 5% CO2 atmosphere. Two days (48 ± 2 h) prior to in vitro experiments, the cells were harvested using trypsin-ethylenediaminetetraacetic acid (EDTA; 0.25% trypsin, 0.02% EDTA) in PBS and centrifuged. The supernatant was disposed, and the cell pellet was resuspended in a culture medium, and LNCaP cells (150,000 cells/well) were counted with a hemocytometer and seeded in poly-L-lysine-coated 24-well plates used in cell binding studies. The cells were then allowed to grow at 37 °C for 48 h. PC3-PIP cells provided by Professor Xiaoyuan Chen (Singapore) require additional Puromycin (2 µg/ml) in addition to the appealed culture conditions. Detailed information regarding uptake and internalization experiments can be found in the previous report.
In order to determine the binding affinity, a competitive cell binding assay was performed. […] The total radioactivity in each well was measured with a gamma counter. […]

[2] = Radiochemical stability in human serum at 37 °C; assay type: in vitro ADME; conditions: 2 h
Procedure: (§1) The radiochemical purity of samples incubated in PBS at each time point was determined using RP-HPLC. For the samples in human serum, a pretreatment step was applied. Briefly, the human serum samples underwent precipitation with acetonitrile, and the radiochemical purity of each supernatant aliquot was determined using RP-HPLC after centrifugation for 5 min at 10,000 rpm. The experiments were performed in triplicate.

[3] = system: LNCaP tumor-bearing NOD/SCID mice; experiment: Biodistribution in LNCaP tumor model
[4] = Radiochemical stability in PBS at 37 °C; assay type: physicochemical; conditions: 2 h
Procedure: as §1

LNCaP cells = experiment: Uptake and internalization in LNCaP cells; assay type: cell-based, human; conditions: 120 min incubation, normalized to 10^6 cells
Procedure: LNCaP prostate cancer cell line obtained from the American Type Culture Collection (ATCC, Manassas, VA) was used for cell affinity studies. […] The supernatant was disposed, and the cell pellet was resuspended in a culture medium, and LNCaP cells (150,000 cells/well) were counted with a hemocytometer and seeded in poly-L-lysine-coated 24-well plates used in cell binding studies. The cells were then allowed to grow at 37 °C for 48 h. PC3-PIP cells provided by Professor Xiaoyuan Chen (Singapore) require additional Puromycin (2 µg/ml) in addition to the appealed culture conditions.

[5] = system: LNCaP tumor-bearing NOD/SCID mice; conditions: mouse, in vivo
PC3-PIP tumors = experiment: Micro-PET/CT blocking experiment with 2-PMPA, PC3-PIP tumor model; assay type: in vivo, mice; conditions: identical methodology
Procedure: (§2) To perform imaging studies, the male mice bearing LNCaP tumors were injected with the corresponding radioligand (~ 2.5 MBq; 100 μL) via their tail veins. The micro-PET/CT scans (Inveon PET, Siemens) were conducted at 10, 30, 60, and 120 min after injection. The mice were anesthetized and maintained under 2% isoflurane in oxygen at a flow rate of 2 L/min during the 2-h imaging study. First, a 10 min static PET imaging acquisition was carried out, followed by a 10 min CT scan for localization and attenuation correction. Data analysis was performed using Inveon Research Workplace software. For PC3-PIP tumor model, the imaging studies were performed with micro-PET/SPECT/CT (Inliview-3000B, Novel Medical). Data analysis was performed using Nmsoft-Al ws v1.7–1 software.
(§3) To evaluate the specificity of radioligands, blocking experiments were performed. In brief, 40 nmol of the PSMA inhibitor 2-PMPA was administered, followed by the injection of approximately 2.6 MBq of radioligands after 30 min. Then a static scan of micro-PET/CT was performed 60 min later.

LNCaP tumors = experiment: Micro-PET/CT blocking experiment with 2-PMPA, LNCaP tumor model; assay type: in vivo, mice; conditions: 40 nmol 2-PMPA 30 min before radioligand, static scan 60 min later
Procedure: as §2, §3

Structure (SMILES): O=C([O-])CN1CCN(CC(=O)[O-])CCN(CC(=O)NCCOCCOCCOCCOCCOCCOCCOCCOCCNC(=O)CN(CCCC[C@H](NC(=O)N[C@@H](CCC(=O)O)C(=O)O)C(=O)O)C(=O)C2c3ccccc3-c3ccccc32)CCN(CC(=O)[O-])CC1.[68Ga+3] [[^68Ga]Ga-PP8-WD]
- Blood uptake ([1]; 30 min p.i.): 5.2±0.77 %ID/g
- Bone uptake ([1]; 30 min p.i.): 1.21±0.57 %ID/g
- Brain uptake ([1]; 30 min p.i.): 0.13±0.05 %ID/g
- Heart uptake ([1]; 30 min p.i.): 1.21±0.19 %ID/g
- Kidney uptake ([1]; 30 min p.i.): 11.38±3.15 %ID/g
- Liver uptake ([1]; 30 min p.i.): 1.11±0.10 %ID/g
- Lung uptake ([1]; 30 min p.i.): 2.64±0.23 %ID/g
- Muscle uptake ([1]; 30 min p.i.): 0.45±0.06 %ID/g
- Salivary uptake ([1]; 30 min p.i.): 1.23±0.17 %ID/g
- Small int (small intestine) uptake ([1]; 30 min p.i.): 0.87±0.18 %ID/g
- Spleen uptake ([1]; 30 min p.i.): 1.39±0.26 %ID/g
- Stomach uptake ([1]; 30 min p.i.): 0.83±0.17 %ID/g
- Tumor uptake ([1]; 30 min p.i.): 12.81±4.48 %ID/g
- Blood uptake ([1]; 60 min p.i.): 3.89±0.18 %ID/g
- Bone uptake ([1]; 60 min p.i.): 1.26±0.07 %ID/g
- Brain uptake ([1]; 60 min p.i.): 0.12±0.02 %ID/g
- Heart uptake ([1]; 60 min p.i.): 1.09±0.12 %ID/g
- Kidney uptake ([1]; 60 min p.i.): 4.52±1.51 %ID/g
- Liver uptake ([1]; 60 min p.i.): 1.24±0.16 %ID/g
- Lung uptake ([1]; 60 min p.i.): 2.25±0.13 %ID/g
- Muscle uptake ([1]; 60 min p.i.): 0.52±0.07 %ID/g
- Salivary uptake ([1]; 60 min p.i.): 1.49±0.37 %ID/g
- Small int (small intestine) uptake ([1]; 60 min p.i.): 0.92±0.23 %ID/g
- Spleen uptake ([1]; 60 min p.i.): 1.30±0.21 %ID/g
- Stomach uptake ([1]; 60 min p.i.): 0.98±0.09 %ID/g
- Tumor uptake ([1]; 60 min p.i.): 15.21 ± 3.33 %ID/g
- Blood uptake ([1]; 120 min p.i.): 3.12±0.48 %ID/g
- Bone uptake ([1]; 120 min p.i.): 1.62±0.13 %ID/g
- Brain uptake ([1]; 120 min p.i.): 0.13±0.03 %ID/g
- Heart uptake ([1]; 120 min p.i.): 0.94±0.16 %ID/g
- Kidney uptake ([1]; 120 min p.i.): 2.74±0.38 %ID/g
- Liver uptake ([1]; 120 min p.i.): 1.38±0.19 %ID/g
- Lung uptake ([1]; 120 min p.i.): 2.16±0.14 %ID/g
- Muscle uptake ([1]; 120 min p.i.): 0.43±0.11 %ID/g
- Salivary uptake ([1]; 120 min p.i.): 1.26±0.27 %ID/g
- Small int (small intestine) uptake ([1]; 120 min p.i.): 0.89±0.27 %ID/g
- Spleen uptake ([1]; 120 min p.i.): 0.96±0.14 %ID/g
- Stomach uptake ([1]; 120 min p.i.): 0.79±0.08. %ID/g
- Tumor uptake ([1]; 120 min p.i.): 14.3±5.37 %ID/g
- IC50 (PSMA): 6.13 ± 0.79 nM
- Radiochemical purity after incubation in human serum [2]: 96.69 ± 0.21%
- Tumor/Blood ratio ([3]; 30 min): 4.67±0.32
- Tumor/Heart ratio ([3]; 30 min): 12.31±0.58
- Tumor/Kidney ratio ([3]; 30 min): 0.63±0.11
- Tumor/Liver ratio ([3]; 30 min): 10.58±0.32
- Tumor/Salivary ratio ([3]; 30 min): 5.23±0.24
- Tumor/Blood ratio ([3]; 60 min): 5.31±0.54
- Tumor/Heart ratio ([3]; 60 min): 31.66±2.2
- Tumor/Kidney ratio ([3]; 60 min): 1.22±0.35
- Tumor/Liver ratio ([3]; 60 min): 23.74±1.90
- Tumor/Salivary ratio ([3]; 60 min): 11.50±1.19
- Tumor/Blood ratio ([3]; 120 min): 30.88±1.36
- Tumor/Heart ratio ([3]; 120 min): 75.85±3.6
- Tumor/Kidney ratio ([3]; 120 min): 2.68±0.22
- Tumor/Liver ratio ([3]; 120 min): 41.69±2.9
- Tumor/Salivary ratio ([3]; 120 min): 45.05±2.56
- Radiochemical purity after incubation in PBS [4]: 97%
- Internalization in LNCaP cells (LNCaP cells): 5.72 ± 0.95%
- Uptake in LNCaP cells (LNCaP cells): 10.16 ± 1.87%
- Renal uptake reduced by a factor compared to [68Ga]Ga-Flu-1 [5]: 20
- Renal uptake, fold less compared to [68Ga]Ga-Flu-1 [5]: fivefold
- Tumor uptake ([5]; 0.5 h): 16.18 ± 2.53 %ID/g
- Tumor uptake ([5]; 1 h): 18.64 ± 2.20 %ID/g
- Tumor uptake ([5]; 2 h): 17.12 ± 2.57 %ID/g
- Outcome of blocking imaging with 2-PMPA (PC3-PIP tumors): in concordance with those observed in the LNCaP tumor model
- Radioactivity upon blocking with 2-PMPA (LNCaP tumors): substantially reduced radioactivity
